A short description of series [1]: Concentration in blood of guinea pigs. The series is classed as in vivo. The following applies: oral, 30 mg/kg in 1% methyl cellulose, plasma, HPLC; for AUC / Cmax / half-life / Tmax: guinea pig; for AUC: read-out: AUC 0-lim, area under a curve of concentration in blood vs. time; for Cmax: read-out: Cmax, maximum concentration in blood; for half-life: read-out: T1/2, half life in blood (converted); for Tmax: read-out: Tmax, time required for achieving the maximum concentration in blood. Here is the method:
Concentration in Blood of Guinea Pigs
Each test substance was orally administered at a dose of 30 mg/kg. It was suspended in 1% methyl cellulose and made into a preparation so as to make the administering dose 5 mL/kg. A group consisted of four animals and blood was collected after 30 minutes, 1 hour, 2 hours, 4 hours, 6 hours and 24 hours from the administration. (A feed was given after collection of the blood after 6 hours). Thus, each about […] (corresponding to four capillary tubes) of blood were collected with intervals using a heparintreated capillary tube and plasma was separated by a hematocrit centrifuge to prepare a plasma sample. A plasma sample of about […] was preserved at -80° C. until the measurement. Methanol ([…]) was added to […] of the plasma followed by mixing, the mixture was centrifuged at 1500×g for ten minutes at […] and the separated supernatant liquid was filtered through a membrane filter of […]. The filtrate was used as a sample for an HPLC, analyzed under the analyzing condition that the column was 100 mm×4.6 mm (inner diameter) of TSK-gel Super ODS, the flow rate was 1.0 mL/minute, the column temperature was 40° C., an injection amount was […], detection was done by UV of 225 nm and the mobile phase was water-acetonitrile (75:25 in terms of % by volume) and the maximum concentration in blood (Cmax), time required for achieving the maximum concentration in blood (Tmax), half life in blood (T1/2) and area under a curve of concentration in blood vs. time (AUC 0-lim) were determined. RS-25344 (Cell Signalling, 7(5), 527 (1995); Mol. Pharmacol., 48, 616 (1995)) and CR-77059 (J. Med. Chem., 34, 624 (1991); J. Pharmacol. Exp. Ther., 272, 3,1313 (1995)) were used as control drugs.

For another series, the system named is Mice. The series is described as follows: Influence on general symptoms of mice (modified Irwin's method). The series is classed as in vivo. The following applies: for Death: oral, 5 mice per group, until the next day. The protocol: Influence on General Symptoms of Mice
Mice having no abnormality in their appearance before administration of the test drugs were selected, and five mice were used for each group. Oral administration of the test compound was carried out and, 30 minutes, one hour and two hours thereafter, observations were conducted according to the modified method of Irwin's method for observing the general symptoms of mice. Degree of the symptom was evaluated in terms of (+) and (-) and, when the symptom was apparently severe, it was mentioned as (++). Also, death was observed until the next day of the administration.
1) Suppression of spontaneous motility: When mice were transferred from a home cage to a cage for symptom observation and, if motion of the mice was less than the non-administered group at that time, that was evaluated as (+).
2) Muscle relaxation: When forefeet of mice were hung on a wire stretched horizontally so that the mice were hung by means of the forefeet and, if their reaction at that time for climbing up the wire took a longer time than the non-administered group, that was evaluated as (+).
4) Blepharoptosis: If 1/4 or more was closed as compared with the non-administered group, that was evaluated as (+).
5) Salivation: If salivation was noted a little around the mouth, that was evaluated as (+).
6) Death: If dead case was noted, that was mentioned as such.
5-Amino-1,3-diethyl-1,2,3,4-tetrahydropyrido[2,3-d]-pyrimidine-2,4-dione (Control Compound B; a compound mentioned in Japanese Laid-Open Patent Publication Sho-63/45279 and in U.S. Pat. Nos. 4,808,587 and 5,776,942) was used as a control drug.

The test system of series [2] is airway smooth muscle isolated from guinea pigs. Put plainly: Relaxing action to smooth muscle of airway of guinea pigs (histamine-constricted). The class given is cell-based. The following applies: Cavia porcellus; guinea pig airway, constricted with 10^-4 M histamine, cumulative addition; read-out: EC50, concentration showing 50% of the maximum reaction (relaxation). The text has this: […] Action to Smooth Muscle of Airway of Guinea Pigs A guinea pig was killed by draining out the blood, the airway was isolated, and four airway pieces having a width of about 1 cm cut along the cartilage were connected by silk yarn to prepare an airway smooth muscle sample. The sample was hung with a load of about 0.5 g in a 5-mL Magnus vessel filled with a Tyrode solution and aerated with a mixed gas (95% O2 and 5% CO2). […] This was repeatedly treated with 10^-5 M of histamine and, after confirming that the constriction became constant, it was treated with 10^-4 M of histamine. After the maximum constriction reaction of the smooth muscle became constant, the test compound was added thereto starting from a low concentration cumulatively to investigate the relaxing action. […] Pat. […] Pat. No. 4,808,587 to Go et al and in U.S. Pat. No. 5,776,942 to Furukawa et al) and theophylline were used as control agents.

For series [3], the system named is smooth muscle of blood vessel isolated from rats. The series is described as follows: Influence on continuous constriction of smooth muscle of blood vessel isolated from rats (noradrenaline-constricted pulmonary main artery). The class given is cell-based. The settings on record: rat pulmonary main artery, constricted with 10^-7 M noradrenaline, 37° C.; read-out: EC50, concentration showing 50% of the maximum reaction (relaxation). Here is the method: Influence on Continuous Constriction of […] Smooth Muscle of Rats
The back of the head of a rat was struck to cause a cerebral concussion, carotid arteries on both sides were immediately cut and the pulmonary main artery was isolated. The isolated artery was fully aerated with a mixed gas (95% O2 and 5% CO2), placed in a Krebs-Henselite solution warmed at 37° C., excessive tissues were removed as much as possible and a spiral sample (having a width of about 2 mm and a length of 15 mm) was prepared according to a method of Furchgott, et al. The blood vessel sample was hung with a load of about 0.5 g in a 5-mL Magnus vessel filled with a Krebs-Henseleit solution and aerated with a mixed gas (95% O2 and 5% CO2). After the sample was allowed to stand for 30 minutes to one hour, it was treated with noradrenaline (final concentration: 10^-7 M) and the constricting reaction was amplified via an amplifier for blood pressure using an FD pickup and recorded on a recorder. Noradrenaline (10^-7 M) was repeatedly applied and, after confirming that the constriction became constant, 10^-7 M of noradrenaline was applied. After the maximum shrinking reaction of the smooth muscle became constant, the test compound was added thereto starting from a low concentration cumulatively to investigate the relaxing action. A dose vs. reaction curve was prepared from the isotonic reaction of various concentrations of the test compound and an EC50, a concentration showing 50% of the maximum reaction, was determined.

The results in this text go back to US6242452A, “7-aminopyrido[2,3-D]pyrimidine derivatives” (Nippon Zoki Pharmaceutical Co., Ltd., priority 1998, dated 2001).

Structures are written as SMILES.

Take `COC(=O)c1cccc(-n2c(=O)n(Cc3ccccc3)c(=O)c3cccnc32)c1` [CP-77059, reference compound]: in series [1], the “Concentration in blood (in words, Table 6)” value is “less than identification limit”.

`CCn1c(=O)c2ccc(N)nc2n(-c2cc(OC)cc(OC)c2)c1=O` [Compound 5, 7-amino-3-ethyl-1-(3,5-dimethoxyphenyl)-1,2,3,4-tetrahydropyrido[2,3-d]pyrimidine-2,4-dione]: in the series with Mice (mouse, in vivo, po, 1000 mg/kg), the Blepharoptosis result is reported as “(+) × 3”, the Muscle relaxation result is on record as “(+) × 3” and the “Suppression of spontaneous motility” value was “(+) × 2”. Further, in the series with Mice (1000 mg/kg), the Death was found to be 0. In series [2], the EC50 was found to be 1.7 µM. In series [1], the AUC was 458 µg·h/mL, the Cmax was 30 µg/mL, the half-life is 12.1 h and the Tmax stood at 3 h. Moreover, the EC50 in series [3] is greater than 100 µM.

For `CCCCn1c(=O)c2ccc(N)nc2n(-c2cc(OC)cc(OC)c2)c1=O` [Compound 7, 7-amino-3-butyl-1-(3,5-dimethoxyphenyl)-1,2,3,4-tetrahydropyrido[2,3-d]pyrimidine-2,4-dione], in the series with Mice (mouse, in vivo, po, 300 mg/kg), the Blepharoptosis entry is listed as “(+) × 1”, the Muscle relaxation result is “(+) × 2” and the “Suppression of spontaneous motility” value is reported as “(+) × 2”. In the series on Mice (mouse, in vivo, po, 1000 mg/kg), the Muscle relaxation result is on record as “(+) × 3”. For the same molecule, the Death with Mice (300 mg/kg) turned out to be 0. Moreover, the Death in the series on Mice (1000 mg/kg) is on record as 0. Moreover, the EC50 in series [2] amounted to 0.59 µM. In series [1], the AUC turned out to be 28.6 µg·h/mL, the Cmax is 1.6 µg/mL, the half-life was 131 h and the Tmax was 15 h.

As to `COc1cc(OC)cc(-n2c(=O)n(Cc3ccccc3)c(=O)c3ccc(N)nc32)c1` [Compound 8, 7-amino-3-benzyl-1-(3,5-dimethoxyphenyl)-1,2,3,4-tetrahydropyrido[2,3-d]pyrimidine-2,4-dione], in series [2], the EC50 worked out at 0.32 µM.

`COc1cc(OC)cc(-n2c(=O)n(CC(C)C)c(=O)c3ccc(N)nc32)c1` [Compound 15]: the EC50 in series [2] was found to be 0.21 µM. Moreover, in series [1], the AUC is 134 µg·h/mL, the Cmax was determined as 10.1 µg/mL, the half-life is 9.8 h and the Tmax is 2.3 h. In addition, the EC50 in series [3] was greater than 100 µM.

Turning to `Nc1ccc2c(=O)n(Cc3ccccc3)c(=O)n(-c3ccccc3)c2n1` [Compound 16, 7-amino-3-benzyl-1,2,3,4-tetrahydro-1-phenylpyrido[2,3-d]pyrimidine-2,4-dione], the figures for the EC50 in series [2] and in series [3] were 0.023 µM and 50.1 µM, respectively.

As for `Nc1ccc2c(=O)n(Cc3ccncc3)c(=O)n(-c3ccccc3)c2n1` [Compound 17, 7-amino-1,2,3,4-tetrahydro-1-phenyl-3-(4-picolyl) pyrido[2,3-d]pyrimidine-2,4-dione], the EC50 in series [2] was 0.019 µM.

Regarding `COc1cc(OC)cc(-n2c(=O)n(Cc3ccncc3)c(=O)c3ccc(N)nc32)c1` [Compound 18, 7-amino-1-(3,5-dimethoxyphenyl)-1,2,3,4-tetrahydro-3-(4-picolyl)pyrido[2,3-d]pyrimidine-2,4-dione], the EC50 in series [2] was 0.061 µM; in series [3] it was greater than 100 µM.

`COc1ccc(Cn2c(=O)c3ccc(N)nc3n(-c3ccccc3)c2=O)cc1` [Compound 28, 7-amino-1,2,3,4-tetrahydro-3-(4-methoxybenzyl)-1-phenylpyrido[2,3-d]pyrimidine-2,4-dione]: in series [2], the EC50 is 0.045 µM.

As to `Nc1ccc2c(=O)n(Cc3ccc(F)cc3)c(=O)n(-c3ccccc3)c2n1` [Compound 29, 7-amino-3-(4-fluorobenzyl)-1,2,3,4-tetrahydro-1-phenylpyrido[2,3-d]pyrimidine-2,4-dione], the EC50 in series [2] came to 0.076 µM.

On to `Nc1ccc2c(=O)n(Cc3cccs3)c(=O)n(-c3ccccc3)c2n1` [Compound 37, 7-amino-1,2,3,4-tetrahydro-1-phenyl-3-(2-thienylmethyl)pyrido [2,3-d]pyrimidine-2,4-dione], for which the EC50 in series [2] was determined as 0.021 µM.

On to `Nc1ccc2c(=O)n(Cc3ccco3)c(=O)n(-c3ccccc3)c2n1` [Compound 38, 7-amino-3-(2-furfuryl)-1,2,3,4-tetrahydro-1-phenylpyrido [2,3-d]pyrimidine-2,4-dione], for which the EC50 in series [2] worked out at 0.04 µM.

Turning to `Nc1ccc2c(=O)n(Cc3ccsc3)c(=O)n(-c3ccccc3)c2n1` [Compound 39, 7-amino-1,2,3,4-tetrahydro-1-phenyl-3-(3-thienylmethyl)pyrido [2,3-d]pyrimidine-2,4-dione], the EC50 in series [2] was 0.027 µM.

`CCn1c(=O)c2ccc(N)nc2n(CC)c1=O` [Control Compound A, 7-Amino-1,3-diethyl-1,2,3,4-tetrahydropyrido-[2,3-d]pyrimidine-2,4-dione, reference compound]: the EC50 in series [2] stood at 1.01 µM.

Regarding `CCn1c(=O)c2c(N)ccnc2n(CC)c1=O` [Control Compound B, 5-Amino-1,3-diethyl-1,2,3,4-tetrahydropyrido[2,3-d]-pyrimidine-2,4-dione, reference compound], in the series on Mice (mouse, in vivo, po, 100 mg/kg), the Blepharoptosis result was “(+) × 2”, the Muscle relaxation result was “(+) × 3”, the Passiveness entry is “(+) × 1” and the “Suppression of spontaneous motility” value is “(+) × 3”. The “Suppression of spontaneous motility” value with Mice (mouse, in vivo, po, 300 mg/kg) is recorded as “(+) × 3”. This molecule yielded a Death with Mice (100 mg/kg) of 0. The molecule also yielded a Death in the series with Mice (300 mg/kg) of 0. In addition, the EC50 in series [2] was 0.83 µM.

Take `O=c1c2cccnc2n(-c2cccc([N+](=O)[O-])c2)c(=O)n1Cc1ccncc1` [RS-25344, reference compound]: the “Concentration in blood (in words, Table 6)” value in series [1] is given as “less than identification limit”.

With `Cn1c(=O)c2[nH]cnc2n(C)c1=O` [theophylline, reference compound], the EC50 in series [2] came to 51 µM.
